The text below walks through data of patent US20230042729A1, “PEPTIDE CONSTRUCTS AND COMPOSITIONS” (DIET4LIFE APS, priority 2019, published 2023).

No end group written: not given here.

The target of data set [1] is T1, trypsin inhibitor, T9128 from soybean (UniProt P01070).
T1 sequence: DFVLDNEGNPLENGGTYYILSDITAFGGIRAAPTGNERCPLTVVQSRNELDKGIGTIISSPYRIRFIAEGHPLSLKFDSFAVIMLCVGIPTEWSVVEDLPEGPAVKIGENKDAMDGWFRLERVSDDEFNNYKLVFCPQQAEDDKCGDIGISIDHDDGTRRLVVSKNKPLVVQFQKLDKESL

The target of data set [2] is trypsin inhibitor T9253 from chicken egg white (UniProt P01005).
The next data set has as its system carboxypeptidase. Kind of data set: Carboxypeptidase activity in pancreatin (Hippuryl-L-phenylalanine). The data set is classed as biochemical, porcine. Particulars: 0.1 mg/ml pancreatin (FIG. 23D). The text has this:
FIG. 23. Enzymes in intestine homogenate and pancreatin.

Data set [3] has as its target T2, commercial carboxypeptidase inhibitor (CPI) from Potato tuber (UniProt P01075).
T2 sequence: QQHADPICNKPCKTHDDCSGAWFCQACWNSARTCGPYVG

Another data set deals with murine intestinal cells (Mus musculus, UniProt O88319). Kind of data set: Ca2+ flux / calcium response assay (cell signaling activity). The data set is classed as cell-based. Here is the method: Ca^2+ Flux Assay/Calcium Response Assay:
Elevation of intracellular calcium level was measured using the fluorescent calcium chelating dye Fluo-4 AM (ThermoFischer Scientific, Denmark). Briefly, cells were grown as a monolayer in 96-well tissue culture plates (Sarstedt, Germany) to near confluence in appropriate growth medium as described in the cell culture section.
All test compounds were dissolved in water, and then diluted in 1×HBSS containing 25 mM HEPES (pH 7.4), 1% BSA and 2% ink. […]
A general note: Calcium flux is commonly read through the fluorescence of an indicator in the cells.

Data set [4] is described as follows: Stability of peptides in intestine homogenate, remaining activity read in intestinal cells. The data set is classed as in vitro ADME, mice. Particulars: octapeptides; % activity left after 30 min incubation in intestine homogenate at 37° C. The method, then:
Small intestines from 20 Swiss-Webster males were homogenized in 350 ml Dulbecco's phosphate-buffered saline (PBS) (pH 7.4) (ThermoFischer Scientific, Denmark) with a IKA® basic 18 Ultra-Turrax tissue homogenizer set a speed 5 followed by filtration using 100 μm nylon mesh filter. Protein concentration was 6 mg/ml using the bicinconinic acid assay (ThermoFischer Scientific, Denmark) and bovine serum albumin as standard. The intestine homogenate was diluted 10 times in HBSS containing 25 mM HEPES (pH 7.4), and further diluted 30×, 90×, 270×, 810× or 2430× before incubation with peptides. All solutions were prewarmed to 37° C. before mixing with peptide solutions.
Peptides were incubated at 10^−5 M with dilutions of small intestine homogenate at 37° C. for 90 minutes with shaking. Reactions were stopped by addition of 1 M phosphoric acid (final 0.4 M, pH˜1.2). Each peptide incubation mix was then neutralized with NaOH to pH 7.2-7.4 and immediately tested for activity in intestinal cells. Control for zero degradation, i.e. addition of 1 M phosphoric acid prior to addition of intestine homogenate, was included for each peptide. […]
(§1) The 20 hexapeptides with systematic N-terminal substitutions (X-KPYIL) (Schafer-N, Denmark) and NT (8-13) was incubated at 10^−6 M in either FBS for 10 minutes or with 270× diluted intestinal homogenate for 30 minutes at 37° C. with shaking. The degradation was stopped with 1 M phosphoric acid. Peptide solutions were neutralized with NaOH (pH 7.2-7.4), diluted and immediately tested for bioactivity using murine intestinal cells. Determination of EC50 for stimulation of cells allowed calculation of recovered peptide.

Data set [5] can be described thus: Stability of peptides in serum, remaining activity read in intestinal cells. Format: in vitro ADME, Bovine. Particulars: octapeptides; fraction of peptide activity left after 10 min of incubation in serum at 37° C. compared with undigested sample. The method, then:
All peptides were incubated at 10^−5 M with Fetal Bovine Serum (FBS; final concentration of 66.7%) (Sigma Aldrich, Denmark) at 37° C. for 3 hours. The peptide degradation was terminated using 1 M phosphoric acid (final 0.4 M, pH˜1.2) and neutralized to pH 7.2-7.4 with NaOH before testing activity in intestinal cells. As for small intestine homogenates, a zero degradation control was included for each peptide.
DC7-2, NT, DKPYIL and NT-(8-13) (final concentration of 10^−6 M) were incubated either with FBS or with 270× diluted intestinal homogenate at 37° C. for various time points with shaking. Degradation was stopped with 1 M phosphoric acid and the samples were subsequently neutralized and immediately tested with intestinal cells as described above. Control for zero degradation was included for each peptide as above.
as §1

Data set [6] is described as follows: Stability of peptides ex vivo in rodent intestine. Particulars: rodent intestine model of degradation. The data set is classed as in vitro ADME, mouse or rat. Here is the method: 0,001 mg/ml of the indicated peptides were incubated with pieces of rodent intestine (mouse and rat intestine gave similar results) for up to 10 minutes at 37° C. Recovery of activity was tested with dose-response curves as indicated.
FIG. 9. Stability of peptides in rodent intestine. EC50 values for different peptides and different incubation times were calculated from FIG. 8 and recovered activity plotted as a function of time.
Peptides are degraded by proteases in the gastrointestinal tract. However the speed of this degradation depends on the sequence of the peptide. In order to measure stability of the […] peptide series and to compare with e.g. RRKPYIL, 10 or 50 mg (wet weight) of mouse or rat intestinal tissue (distal ileum) was equilibrated in V-bottom 24 well plates in 800 μl HBSS, 25 mM HEPES, pH 7.4 at 37° C. with shaking at 350 rpm. Identical amounts of different peptides (final concentration of 1 μg/ml) were added to the intestinal pieces and incubation continued. At various time points, 100 μl aliquots were removed and diluted into whey protein hydrolysate (final concentration of 10 mg/ml) to non-specifically compete protease activity. Peptide solutions were then diluted and tested for bioactivity (FIG. 8). Peptides incubated under same conditions but in absence of intestine served as controls (no degradation). […]

Another data set addresses trypsin (Homo sapiens, UniProt P07477). Kind of data set: Stability studies of DC7-2: trypsin. The data set is classed as in vitro ADME.
The next data set concerns the target chymotrypsin (Homo sapiens, UniProt P17538). Kind of data set: Stability studies of DC7-2: chymotrypsin. The data set is classed as in vitro ADME.
For the next data set, the system named is carboxypeptidases. Briefly: Stability studies of DC7-2: carboxypeptidases. Format: in vitro ADME.
For a further data set, the target named is gastric pepsin (Homo sapiens, UniProt P0DJD8). Kind of data set: Stability studies of DC7-2: pepsin. The data set is classed as in vitro ADME.
For data set [7], the target named is T3, trypsin inhibitor, T9128 from soybean, P01070.
T3 chain: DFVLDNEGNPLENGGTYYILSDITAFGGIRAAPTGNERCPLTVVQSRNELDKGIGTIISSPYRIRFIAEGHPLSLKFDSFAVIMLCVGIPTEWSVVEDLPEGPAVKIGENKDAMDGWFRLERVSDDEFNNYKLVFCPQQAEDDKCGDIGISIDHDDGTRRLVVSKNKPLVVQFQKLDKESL

Data set [8] has as its target T4, trypsin inhibitor T9253 from chicken egg white, P01005.
T4 chain: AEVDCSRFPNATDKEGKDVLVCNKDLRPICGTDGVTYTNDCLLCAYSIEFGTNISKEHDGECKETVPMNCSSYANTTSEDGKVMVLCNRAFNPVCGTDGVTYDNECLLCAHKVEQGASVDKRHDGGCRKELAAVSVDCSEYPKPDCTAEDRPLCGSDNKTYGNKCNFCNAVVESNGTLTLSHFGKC

murine intestinal cells, sequence (O88319 whole entry): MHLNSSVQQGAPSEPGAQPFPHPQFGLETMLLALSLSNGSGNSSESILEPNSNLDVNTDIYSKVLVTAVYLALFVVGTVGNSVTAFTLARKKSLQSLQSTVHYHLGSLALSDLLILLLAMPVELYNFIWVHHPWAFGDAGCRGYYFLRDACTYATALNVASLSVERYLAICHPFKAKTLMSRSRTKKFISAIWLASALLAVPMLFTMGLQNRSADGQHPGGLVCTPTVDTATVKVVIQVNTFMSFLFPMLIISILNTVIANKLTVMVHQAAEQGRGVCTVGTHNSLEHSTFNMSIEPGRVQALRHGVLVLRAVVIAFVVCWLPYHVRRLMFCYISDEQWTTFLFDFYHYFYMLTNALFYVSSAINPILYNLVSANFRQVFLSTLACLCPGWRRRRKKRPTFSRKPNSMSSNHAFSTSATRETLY
gastric pepsin, sequence (P0DJD8 63-388): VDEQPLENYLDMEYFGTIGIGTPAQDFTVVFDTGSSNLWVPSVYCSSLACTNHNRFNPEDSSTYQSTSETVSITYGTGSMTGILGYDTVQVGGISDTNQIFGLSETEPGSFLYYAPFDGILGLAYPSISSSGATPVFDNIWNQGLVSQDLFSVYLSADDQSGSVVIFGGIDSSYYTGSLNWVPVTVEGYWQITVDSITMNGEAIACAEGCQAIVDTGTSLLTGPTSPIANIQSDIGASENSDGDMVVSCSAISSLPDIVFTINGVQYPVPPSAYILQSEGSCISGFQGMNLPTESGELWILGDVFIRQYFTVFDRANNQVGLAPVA
chymotrypsin, sequence (P17538 19-263): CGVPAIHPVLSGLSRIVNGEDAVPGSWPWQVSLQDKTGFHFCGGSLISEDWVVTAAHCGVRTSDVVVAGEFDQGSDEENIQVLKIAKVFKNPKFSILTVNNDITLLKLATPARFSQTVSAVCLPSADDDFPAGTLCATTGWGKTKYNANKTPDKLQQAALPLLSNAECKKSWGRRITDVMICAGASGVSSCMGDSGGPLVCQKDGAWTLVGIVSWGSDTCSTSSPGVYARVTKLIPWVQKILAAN

Regarding “trypsin in intestine homogenate (mouse small intestine)”, the “trypsin activity (conversion of L-BAPA, slope of kinetic absorbance)” value in [1] is “Intestinal and pancreatic trypsin activity was inhibited in a dose-dependent manner by two specific trypsin inhibitors from soybean and chicken egg white, respectively”; in [2], “Intestinal and pancreatic trypsin activity was inhibited in a dose-dependent manner by two specific trypsin inhibitors from soybean and chicken egg white, respectively”.
For “CPI: commercial carboxypeptidase inhibitor from Potato tuber (QQHADPICNKPCKTHDDCSGAWFCQACWNSARTCGPYVG)”, the carboxypeptidase activity result in the data set on carboxypeptidase is “efficiently suppressed”.
Regarding carboxypeptidase in porcine pancreatin, the “carboxypeptidase activity (Hippuryl-L-phenylalanine substrate, slope of kinetic absorbance)” value in [3] was “carboxypeptidase activity, which was efficiently suppressed by a commercial carboxypeptidase inhibitor (CPI) from Potato tuber”.
With QSDKPYIL [Peptide 36049, Q SDKPYIL], the EC50 on murine intestinal cells was 4.01 nM. Further, the “Stability in intestine (activity remaining)” value in data set [4] came out at 8.8%. Also, in data set [5], the “Stability in serum (activity remaining)” value was determined as 0.0742.
With ASDKPYIL [Peptide 36036, A SDKPYIL], in [6], the “stability compared with the active fragment of neurotensin” value is listed as 100-1000 times. Moreover, the sensitivity to trypsin result at trypsin is “sensitive”. For the same molecule, the sensitivity to chymotrypsin entry at chymotrypsin was “sensitive”. Also, the EC50 at murine intestinal cells was 3.51 nM. In addition, the sensitivity to carboxypeptidases result with carboxypeptidases is listed as “sensitive”. Besides, the “Stability in intestine (activity remaining)” value in data set [4] is recorded as 6.0%. Moreover, the “degradation by gastric pepsin” value at gastric pepsin is recorded as “resilient”. For the same molecule, the “Stability in serum (activity remaining)” value in [5] came out at 0.0988.
As to NSDKPYIL [Peptide 36047, N SDKPYIL], the EC50 on murine intestinal cells is 4.41 nM. The “Stability in intestine (activity remaining)” value in data set [4] is 3.9%. Also, in [5], the “Stability in serum (activity remaining)” value is on record as 0.0872.

B1: trypsin in porcine pancreatin (protein)
chain: IVGGYTCAANSIPYQVSLNSGSHFCGGSLINSQWVVSAAHCYKSRIQVRLGEHNIDVLEGNEQFINAAKIITHPNFNGNTLDNDIMLIKLSSPATLNSRVATVSLPRSCAAAGTECLISGWGNTKSSGSSYPSLLQCLKAPVLSDSSCKSSYPGQITGNMICVGFLEGGKDSCQGDSGGPVVCNGQLQGIVSWGYGCAQKNKPGVYTKVCNYVNWIQQTIAAN
For B1, the “trypsin activity (conversion of L-BAPA, slope of kinetic absorbance)” value in data set [7] is “Intestinal and pancreatic trypsin activity was inhibited in a dose-dependent manner by two specific trypsin inhibitors from soybean and chicken egg white, respectively”; in data set [8] it was “Intestinal and pancreatic trypsin activity was inhibited in a dose-dependent manner by two specific trypsin inhibitors from soybean and chicken egg white, respectively”.

Broadly, the EC50 is the concentration at which the effect is half-maximal.
